This is an account of results in patent US20100216779A1 (GLAXOSMITHKLINE LLC, priority 2007, published 2010).

One series concerns COLO205 (colon). The experiment in a line: Inhibition of cell proliferation, CellTiter-Glo, COLO205. It counts as cell-based. As to conditions: Homo sapiens, COLO 205, 72 h. The method in brief: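 Exponentially growing COLO205 cells in medium with 10% FBS were plated below 2000 cells/well at 37 °C, 5% CO2. Untreated wells served as controls.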
For series [1], the system named is NCI-H929 (multiple myeloma). The experiment in a line: Inhibition of cell proliferation, CellTiter-Glo, NCI-H929. Type of series: cell-based. As to conditions: Homo sapiens, 72 h. The essentials: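 Cells were grown in medium with 10% FBS at 37° C, 5% CO2. Cell number was read as CellTiter-Glo luminescence (cellular ATP), with untreated wells as control.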
A general note: Cellular ATP, detected with luciferase, serves as a proxy for viable cell number.

For series [2], the target named is T1, human IGF-1R (NIH-3T3 cells over expressing human IGF-1R) (Homo sapiens, UniProt P08069).
T1 construct: expressed in transfected cells; host or cells: NIH-3T3 (mouse fibroblasts)
T1 sequence (P08069 31-1367): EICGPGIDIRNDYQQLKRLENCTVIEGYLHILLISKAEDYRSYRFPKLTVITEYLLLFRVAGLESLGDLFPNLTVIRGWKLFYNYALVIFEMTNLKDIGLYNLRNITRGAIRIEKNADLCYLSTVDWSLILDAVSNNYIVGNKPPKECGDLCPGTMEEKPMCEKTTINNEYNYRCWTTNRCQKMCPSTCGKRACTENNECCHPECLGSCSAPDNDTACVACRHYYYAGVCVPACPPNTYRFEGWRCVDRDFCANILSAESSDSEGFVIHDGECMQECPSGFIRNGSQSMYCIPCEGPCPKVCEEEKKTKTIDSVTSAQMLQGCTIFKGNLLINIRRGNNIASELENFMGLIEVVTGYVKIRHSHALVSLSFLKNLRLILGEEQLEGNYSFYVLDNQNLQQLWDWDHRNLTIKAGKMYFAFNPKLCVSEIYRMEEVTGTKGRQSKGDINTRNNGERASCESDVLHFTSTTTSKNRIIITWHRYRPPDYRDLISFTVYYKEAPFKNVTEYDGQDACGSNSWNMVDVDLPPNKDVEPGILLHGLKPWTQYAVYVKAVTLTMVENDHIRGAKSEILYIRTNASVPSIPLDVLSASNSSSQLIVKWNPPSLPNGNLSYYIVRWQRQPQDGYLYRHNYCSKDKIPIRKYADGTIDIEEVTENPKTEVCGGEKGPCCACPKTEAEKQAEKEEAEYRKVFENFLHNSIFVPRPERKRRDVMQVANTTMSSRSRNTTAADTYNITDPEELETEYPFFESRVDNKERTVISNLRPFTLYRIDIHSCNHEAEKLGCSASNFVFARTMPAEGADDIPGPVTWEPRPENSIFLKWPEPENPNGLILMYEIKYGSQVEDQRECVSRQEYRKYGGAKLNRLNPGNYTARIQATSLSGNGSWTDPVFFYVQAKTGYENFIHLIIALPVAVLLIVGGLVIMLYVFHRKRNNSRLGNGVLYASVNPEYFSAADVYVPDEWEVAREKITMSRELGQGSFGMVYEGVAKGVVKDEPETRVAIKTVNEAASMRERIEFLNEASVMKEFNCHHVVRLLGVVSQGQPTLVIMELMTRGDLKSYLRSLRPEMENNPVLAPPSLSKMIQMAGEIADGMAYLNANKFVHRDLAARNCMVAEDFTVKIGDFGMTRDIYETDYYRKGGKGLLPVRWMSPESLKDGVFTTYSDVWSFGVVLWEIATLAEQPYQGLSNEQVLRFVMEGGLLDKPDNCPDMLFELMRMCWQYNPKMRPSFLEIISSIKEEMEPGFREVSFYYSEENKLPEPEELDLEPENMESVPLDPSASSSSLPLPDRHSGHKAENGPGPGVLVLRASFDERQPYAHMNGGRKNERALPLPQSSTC
Description: IGF-1R cellular autophosphorylation (DELFIA). As to conditions: IGF-1 stimulated. It counts as cell-based. The essentials:
(§1)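 Read-out: DELFIA on lysates, receptor-specific capture antibody plus europium-labelled anti-phosphotyrosine, reported as % of IGF-1- or insulin-stimulated signal. Transfected NIH-3T3 cells got compound (30 uM–1.5 nM, 2 h) before a 15 min ligand pulse: IGF-1 30 ng/mL for IGF-1R, insulin 3 ug/mL for IR.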

Series [3] addresses T2, IR (NIH-3T3 cells over expressing human IGF-1R or IR) (Homo sapiens, UniProt P06213).
T2 construct: expressed in transfected cells; host or cells: NIH-3T3 (mouse fibroblasts)
Description: IR cellular autophosphorylation (DELFIA). As to conditions: NIH-3T3 cells over expressing IR, insulin stimulated. Type of series: cell-based. The method in brief: as §1

The test system of series [4] is LISN cell (mouse 3T3 fibroblasts transduced with human IGF-1R) tumors. The experiment in a line: In vivo efficacy, mice bearing LISN cell tumors. As to conditions: for tumor growth inhibition at day 21: LISN (start approx. 362 mm^3). The protocol:
E. In Vivo Efficacy—Mouse Models
The efficacy of the compounds of Examples 57 and 58 were assessed together in an in vivo efficacy experiment performed on mice bearing LISN cell (mouse 3T3 fibroblasts transduced with human IGF-1R) tumors. Fifty six female nude mice bearing subcutaneous LISN cell tumors were measured for tumor size and body weight and block randomized into seven groups of eight mice with an equal average tumor volume of approximately 200 mm3. Mice were dosed with either vehicle (20% SBE pH3.5), Example 57 or Example 58. The dosing schedules for each compound were based on previous experiments with the compounds and doses chosen to give the highest tumor growth inhibition and a dose response. Example 58 was dosed at 30, 100 and 300 mg/kg QD for 21 days while Example 57 was dosed at 30 mg/kg QD for 21 days, 15 mg/kg BID for 21 days and 30 mg/kg QDx3 days/week for 3 weeks.
The tumors on mice being treated with vehicle grew with the expected exponential growth throughout the 21 day study. […] The lower dose of 30 mg/kg of Example 58 achieved 28% tumor growth inhibition.
The efficacy of the compounds of Examples 237 and 219 were assessed together in an in vivo efficacy experiment performed on mice bearing LISN cell (mouse 3T3 fibroblasts transduced with human IGF-1R) tumors. Sixty four female nude mice bearing subcutaneous LISN cell tumors were measured for tumor size and body weight and block randomized into eight groups of eight mice with an equal average tumor volume of approximately 362 mm^3. Mice were dosed with either vehicle (20% SBE pH3.5), Example 237 or Example 219. The dosing schedules for each compound were based on previous experiments with the compounds and doses chosen to give the highest tumor growth inhibition and a dose response. Example 237 was administered at 30 and 60 mg/kg QD for 21 days and 30 mg/kg BID for 21 days while Example 219 was administered at 50 and 100 mg/kg QD for 21 days, 25 and 50 mg/kg BID for 21 days.
The tumors on mice being treated with vehicle grew with the expected exponential growth throughout the 21 day study. […] The lower dose of 30 mg/kg QD of Example 237 achieved 15% tumor growth inhibition at day 21 (note: 2 animals were euthanized prior to the last measurement). […] This recovered to 3% by the end of dosing and fully recovered after dosing was concluded. […] This recovered fully within 4 days after the completion of dosing.

T2 sequence (P06213 28-1382): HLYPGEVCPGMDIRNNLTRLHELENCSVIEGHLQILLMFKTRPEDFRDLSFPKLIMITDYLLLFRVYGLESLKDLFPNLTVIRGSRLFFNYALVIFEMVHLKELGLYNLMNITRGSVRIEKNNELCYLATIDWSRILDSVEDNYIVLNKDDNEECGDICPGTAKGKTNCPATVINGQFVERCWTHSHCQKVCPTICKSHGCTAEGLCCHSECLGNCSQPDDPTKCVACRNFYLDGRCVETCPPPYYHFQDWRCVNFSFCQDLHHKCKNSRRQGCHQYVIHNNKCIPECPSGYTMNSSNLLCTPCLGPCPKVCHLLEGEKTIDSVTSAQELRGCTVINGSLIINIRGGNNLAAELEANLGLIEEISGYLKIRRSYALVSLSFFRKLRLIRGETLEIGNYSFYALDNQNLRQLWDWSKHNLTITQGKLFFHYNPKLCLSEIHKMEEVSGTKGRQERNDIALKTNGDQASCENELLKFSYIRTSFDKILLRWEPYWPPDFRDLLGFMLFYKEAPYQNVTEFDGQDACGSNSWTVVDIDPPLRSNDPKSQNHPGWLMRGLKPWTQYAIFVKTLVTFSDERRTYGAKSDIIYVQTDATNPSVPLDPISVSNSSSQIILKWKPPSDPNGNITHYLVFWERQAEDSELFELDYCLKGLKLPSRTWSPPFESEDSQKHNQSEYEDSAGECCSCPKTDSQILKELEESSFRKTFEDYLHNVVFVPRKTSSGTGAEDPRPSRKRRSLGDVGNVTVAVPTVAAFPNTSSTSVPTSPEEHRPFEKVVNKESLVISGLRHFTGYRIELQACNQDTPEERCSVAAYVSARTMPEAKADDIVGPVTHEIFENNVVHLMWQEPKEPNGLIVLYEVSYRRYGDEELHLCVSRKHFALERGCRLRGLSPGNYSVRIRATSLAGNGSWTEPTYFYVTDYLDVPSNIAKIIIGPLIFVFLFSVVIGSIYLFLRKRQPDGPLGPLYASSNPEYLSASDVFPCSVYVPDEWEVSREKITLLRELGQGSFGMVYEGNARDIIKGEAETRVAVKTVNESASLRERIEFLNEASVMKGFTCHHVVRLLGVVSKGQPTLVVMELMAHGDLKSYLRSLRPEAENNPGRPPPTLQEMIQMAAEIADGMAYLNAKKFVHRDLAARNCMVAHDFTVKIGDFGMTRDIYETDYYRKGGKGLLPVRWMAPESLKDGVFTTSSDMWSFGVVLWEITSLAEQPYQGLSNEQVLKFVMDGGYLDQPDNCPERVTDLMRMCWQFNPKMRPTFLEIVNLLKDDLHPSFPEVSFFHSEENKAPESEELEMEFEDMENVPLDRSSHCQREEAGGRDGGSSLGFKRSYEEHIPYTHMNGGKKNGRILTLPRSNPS

As for `COc1cc(N2CCC(N3CCN(S(C)(=O)=O)CC3)CC2)ccc1Nc1nccc(-c2c(-c3cccc(C(=O)Nc4c(F)cccc4F)c3)nc3ccccn23)n1` [Example 58, N-(2,6-difluorophenyl)-3-(3-{2-[(2-(methyloxy)-4-{4-[4-(methylsulfonyl)-1-piperazinyl]-1-piperidinyl}phenyl)amino]-4-pyrimidinyl}imidazo[1,2-a]pyridin-2-yl)benzamide], the half-inhibitory concentration (IC50) is 250 to 1000 nM in the series on COLO205 (colon), < 250 nM in series [1], < 100 nM in series [2] and < 100 nM in series [3]. The tumor growth inhibition in series [4] (LISN, 30 mg/kg QD for 21 days) came to 28%; in series [4] (LISN, 100 mg/kg QD for 21 days), 46%; in series [4] (LISN, 300 mg/kg QD for 21 days), 45%. Further, the “effect on body weight loss” value in series [4] (LISN, 30, 100 and 300 mg/kg QD, throughout the study) is “no effect”.

`CCOc1cc(N2CCC(CCS(C)(=O)=O)CC2)c(C)cc1Nc1nccc(-c2c(-c3ccc(OC)c(C(=O)Nc4c(F)cccc4F)c3)nc3ccccn23)n1` [Example 219, N-(2,6-difluorophenyl)-5-(3-{2-[(2-(ethyloxy)-5-methyl-4-{4-[2-(methylsulfonyl)ethyl]-1-piperidinyl}phenyl)amino]-4-pyrimidinyl}imidazo[1,2-a]pyridin-2-yl)-2-(methyloxy)benzamide]: the IC50 in the series on COLO205 (colon) was < 250 nM; in series [1], < 250 nM; in series [2], < 100 nM; in series [3], < 100 nM. The “tumor growth inhibition at day 21” value is reported as 16% in series [4] (25 mg/kg BID for 21 days), 76% in series [4] (50 mg/kg BID for 21 days), 29% in series [4] (50 mg/kg QD for 21 days) and 44% in series [4] (100 mg/kg QD for 21 days). In addition, the “time to full recovery of body weight after the completion of dosing” value in series [4] (LISN, 25 mg/kg BID and 50 mg/kg BID) is ≤ 4 days. The body weight loss in series [4] (LISN, 25 mg/kg BID for 21 days) is listed as 4%; in series [4] (LISN, 50 mg/kg BID for 21 days) it was 6%; in series [4] (LISN, 100 mg/kg and 50 mg/kg QD), “no body weight loss”.

In the case of `CCc1cc(Nc2nccc(-c3c(-c4ccc(OC)c(C(=O)Nc5c(F)cccc5F)c4)nc4ccccn34)n2)c(OC)cc1N1CCC(N2CCN(S(C)(=O)=O)CC2)CC1` [Example 237, N-(2,6-difluorophenyl)-5-(3-{2-[(5-ethyl-2-(methyloxy)-4-{4-[4-(methylsulfonyl)-1-piperazinyl]-1-piperidinyl}phenyl)amino]-4-pyrimidinyl}imidazo[1,2-a]pyridin-2-yl)-2-(methyloxy)benzamide], the IC50 was < 250 nM in the series on COLO205 (colon), < 250 nM in series [1], < 100 nM in series [2] and < 100 nM in series [3]. Also, the “tumor growth inhibition at day 21” value was found to be 84% in series [4] (30 mg/kg BID for 21 days); 15% in series [4] (30 mg/kg QD for 21 days, 2 animals euthanized prior to the last measurement); 41% in series [4] (60 mg/kg QD for 21 days). The “body weight loss by the end of dosing” value in series [4] (LISN, 30 mg/kg BID) is 3%. Besides, in series [4] (LISN, 30 mg/kg BID), the “initial body weight loss” value is given as 6%. Besides, in series [4] (LISN, other groups (30 and 60 mg/kg QD)), the “effect on body weight loss” value was “no effect”.

In the case of `CCCN1CCN(c2ccc(Nc3nccc(-c4c(-c5ccc(OCC)c(C(=O)Nc6c(F)cccc6F)c5)nc5ccccn45)n3)c(OCC)c2)CC1` [Example 152, N-(2,6-difluorophenyl)-2-(ethyloxy)-5-[3-(2-{[2-(ethyloxy)-4-(4-propyl-1-piperazinyl)phenyl]amino}-4-pyrimidinyl)imidazo[1,2-a]pyridin-2-yl]benzamide], the IC50 in the series with COLO205 (colon) was 250 to 1000 nM; in series [1] it was < 250 nM; in series [2], < 100 nM; in series [3] it was < 100 nM.

As to `COc1cc(N2CCC(N3CCC(CCS(C)(=O)=O)CC3)CC2)ccc1Nc1nccc(-c2c(-c3cccc(C(=O)Nc4c(F)cccc4F)c3)nc3ccccn23)n1` [Example 101, N-(2,6-difluorophenyl)-3-(3-{2-[(2-(methyloxy)-4-{4-[2-(methylsulfonyl)ethyl)-1,4′-bipiperidin-1′-yl]phenyl)amino]-4-pyrimidinyl}imidazo[1,2-a]pyridin-2-yl)benzamide], the IC50 in the series on COLO205 (colon) was 250 to 1000 nM; in series [1], < 250 nM; in series [2], < 100 nM; in series [3], < 100 nM.

For the compound `COc1cc(N2CCC(C3CCN(CCF)CC3)CC2)ccc1Nc1nccc(-c2c(-c3ccc(OC)c(C(=O)Nc4c(F)cccc4F)c3)nc3ccccn23)n1` [Example 96, N-(2,6-difluorophenyl)-5-[3-(2-{[4-[1′-(2-fluoroethyl)-4,4′-bipiperidin-1-yl]-2-(methyloxy)phenyl]amino}-4-pyrimidinyl)imidazo[1,2-a]pyridin-2-yl]-2-(methyloxy)benzamide], the IC50 with COLO205 (colon) is > 1000 nM; in series [1], 250 to 1000 nM; in series [2], < 100 nM; in series [3], < 100 nM.

On to `COc1cc(N2CCC(N3CCC(F)CC3)CC2)ccc1Nc1nccc(-c2c(-c3cccc(C(=O)Nc4c(F)cccc4F)c3)nc3ccccn23)n1` [Example 51, N-(2,6-difluorophenyl)-3-[3-(2-{[4-(4-fluoro-1,4′-bipiperidin-1′-yl)-2-(methyloxy)phenyl]amino}-4-pyrimidinyl)imidazo[1,2-a]pyridin-2-yl]benzamide], for which the IC50 with COLO205 (colon) is 250 to 1000 nM; in series [1] it was 250 to 1000 nM; in series [2], < 100 nM; in series [3] it was 100 to 500 nM.

In the case of `COCCN1CCN(c2ccc(Nc3nccc(-c4c(-c5ccc(OC)c(C(=O)Nc6c(F)cccc6F)c5)nc5ccccn45)n3)c(OC)c2)CC1` [Example 239, N-(2,6-difluorophenyl)-2-(methyloxy)-5-(3-{2-[(2-(methyloxy)-4-{4-[2-(methyloxy)ethyl]-1-piperazinyl}phenyl)amino]-4-pyrimidinyl}imidazo[1,2-a]pyridin-2-yl)benzamide], the IC50 was 250 to 1000 nM in the series with COLO205 (colon), < 250 nM in series [1], < 100 nM in series [2] and < 100 nM in series [3].

On to `CCCc1cc(C2CCN(CCS(C)(=O)=O)CC2)ccc1Nc1nccc(-c2c(-c3ccc(OC)c(C(=O)Nc4c(F)cccc4F)c3)nc3ccccn23)n1` [Example 167, N-(2,6-difluorophenyl)-2-(methyloxy)-5-(3-{2-[(4-{1-[2-(methylsulfonyl)ethyl]-4-piperidinyl}-2-propylphenyl)amino]-4-pyrimidinyl}imidazo[1,2-a]pyridin-2-yl)benzamide], for which the concentration for half-maximal inhibition (IC50) in the series with COLO205 (colon) was > 1000 nM; in series [1], > 1000 nM; in series [2], < 100 nM; in series [3], < 100 nM.

Usually IC50 stands for the midpoint of a concentration-inhibition curve. A higher IC50 goes with weaker potency in that assay.
